Measurements reported in patent US5158970A, “Proline derivatives” (Kabushiki Kaisha Yakult Honsha, priority 1989, dated 1992).
Residues, ends and D or L forms follow the SMILES beside them. *: point of attachment. Cbz = O=C(OCc1ccccc1)*

Tests used:
prolylendopeptidase = prolylendopeptidase (Elizabethkingia meningoseptica, UniProt P27028); assay: biochemical; format: biochemical; details: substrate 2.5 mM Z-glycyl-proline-β-naphthylamide; pH 7.0; 35° C. for 10 minutes; read-out: inhibition constant (Ki)
Chain of prolylendopeptidase (P27028 21-705): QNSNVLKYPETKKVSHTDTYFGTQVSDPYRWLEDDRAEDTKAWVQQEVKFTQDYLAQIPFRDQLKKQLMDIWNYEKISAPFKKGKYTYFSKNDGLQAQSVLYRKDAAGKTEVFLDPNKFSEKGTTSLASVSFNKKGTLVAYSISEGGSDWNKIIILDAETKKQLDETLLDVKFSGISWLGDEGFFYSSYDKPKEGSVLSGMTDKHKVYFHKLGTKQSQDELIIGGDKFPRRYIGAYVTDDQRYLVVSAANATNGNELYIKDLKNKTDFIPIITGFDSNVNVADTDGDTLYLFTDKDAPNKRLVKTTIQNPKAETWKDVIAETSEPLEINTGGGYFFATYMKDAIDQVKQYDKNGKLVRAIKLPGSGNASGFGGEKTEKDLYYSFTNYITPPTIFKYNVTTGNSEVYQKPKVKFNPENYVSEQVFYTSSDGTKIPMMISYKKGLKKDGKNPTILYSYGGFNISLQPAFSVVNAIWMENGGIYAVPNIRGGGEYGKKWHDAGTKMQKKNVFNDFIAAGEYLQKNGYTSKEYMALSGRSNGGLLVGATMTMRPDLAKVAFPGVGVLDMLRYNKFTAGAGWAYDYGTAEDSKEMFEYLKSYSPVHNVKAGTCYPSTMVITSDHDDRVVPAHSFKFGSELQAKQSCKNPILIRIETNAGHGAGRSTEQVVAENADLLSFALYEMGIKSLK
Experimental: The compounds of the invention obtained in the foregoing Examples were assayed for their prolylendopeptidase inhibition activity. This assay for prolylendopeptidase inhibition was carried out in accordance with the method of Yoshimoto and Tsuru (Yoshimoto, T. and Tsuru, D., Agr. Biol. Chem. Vol. 42, 2417, 1978). The corresponding number of test tubes to the number of the compounds to be tested were prepared and 2.5 mM Z-glycyl-proline-β-naphthylamide (0.25 ml), 0.1 M phosphate buffer (pH 7.0, 0.99 ml) and a solution of one of the peptides of the invention (0.1 ml) were placed in each test tube and warmed at 37° C. for 3 minutes. 0.1 ml of solution of propylendopeptidase (0.2 unit/ml) was added to each test tube. After reaction at 35° C. for 10 minutes, 1 M acetate buffer containing Triton X-100 (pH 4.0) was added to a final concentration of 10% and after the mixture was left to stand at room temperature for 15 minutes the absorbance (a) at 410 nm was measured.
The above-mentioned procedure was followed in the same manner but using buffers only in place of the solution of each compound of the invention, and the absorbance (b) was measured.

[1] = tested on: scopolamine-induced amnesia; assay: step-down passive avoidance test, anti-amnestic activity on scopolamine-induced amnesia; format: in vivo, male rats of Wister strain; details: scopolamine 0.5 mg/kg i.p., retention 24 hours after acquisition, relative to scopolamine-treated group
Excerpt: A step-down passive avoidance test on rats was used as the method of assay for anti-amnestic activity to estimate the preventive effect of prolylendopeptidase inhibitors on scopolamine-induced amnesia. This method of assay involved application of electric shocks to animals upon their stepping down on a grid floor to see whether they have learned that such shocks can be avoided by staying on a platform. A passive avoidance test chamber used in this experiment was comprised of an electrifiable grid floor (20 cm in length and 22 cm in width) and a platform (20 cm in length, 15 cm in width and 5 cm in height) placed at the right back corner thereof.
5-Weeks-old male rats of Wister strain weighing 100-150 g (purchased from Japan Clea Co., Ltd.) were used in the test.
Each test compound used in the doses indicated in Tables 2-3 was dissolved or suspended in 4% gum arabic-containing distilled water (1 ml) and administered p.o. one hour before the commencement of acquisition trial. In addition, scopolamine hydrobromide dissolved in saline (0.5 ml) was intraperitoneally administered in a dose of 0.5 mg/kg 30 minutes before the acquisition trial to prepare experimental animal models of amnesia.
In the acquisition trial, the rat was placed on the platform in the test chamber and, when the animal stepped down on the grid floor, the electric current of 5.0 mA was immediately sent to the grid floor continuously until the animal went up on the platform If the rat having gone up on the platform stayed there for more than 30 seconds, the animal was regarded to have learned the situation and taken out of the test chamber. A total time of measurement in the acquisition trial was limited to 300 seconds as maximum, and the time elapsing until the rat learned the situation was measured. In order to avoid any significant difference in the rats, those which took more than 300 seconds for the learning were excluded from the experiment.
The retention trial was carried out 24 hours after the acquisition trial. In this trial, the rat was placed again on the platform in the test chamber, the time elapsing until the animal stepped down onto the grid floor (the step-down latency) was measured.
In each of these tables they are indicated as relative step-down latency, shown by each test compound-treated group in the retention trial, to step-down latency for scopolamine-treated group (i.e. test compound-treated group's step-down latency/scopolamine-treated group's step-down latency).

proline endopeptidase = details: prior art; cited from earlier work
[2] = prior art; cited from earlier work
[3] = Table 2, 5 mg/kg p.o., **p < 0.01 (Mann-Whitney)

Ki (prolylendopeptidase)	Compound	Relative step-down latency in retention trial (mean ± S.E.) ([1]; Table 2, 1 mg/kg p.o.)	Relative step-down latency in retention trial (mean ± S.E.) [1, 3]	Relative step-down latency in retention trial (mean ± S.E.) ([1]; Table 2, 25 mg/kg p.o.)	Relative step-down latency in retention trial (mean ± S.E.) ([1]; Table 2, 50 mg/kg p.o.)	Relative step-down latency in retention trial (mean ± S.E.) ([1]; Table 2, 100 mg/kg p.o.)	other results
370 µM	CCOC(OCC)[C@@H]1CCCN1C(=O)[C@@H]1CCCN1C(=O)CCC(=O)O [Example 12, N-succinyl-L-prolyl-L-prolinal diethyl acetal]	–	–	–	–	–	–
1000 µM	CCOC(OCC)[C@@H]1CCCN1C(=O)CN(C)C(=O)CCC(=O)O [Example 14, N-succinyl-sarcosyl-L-prolinal diethyl acetal]	–	–	–	–	–	–
1000 µM	CCOC(OCC)[C@@H]1CCCN1C(=O)[C@@H]1CCC(=O)N1C(=O)CCC(=O)O [Example 16, N-succinyl-L-pyroglutamyl-L-prolinal diethyl acetal]	–	–	–	–	–	–

The next lines start with the compound.

Compound	Ki (prolylendopeptidase)	Relative step-down latency in retention trial (mean ± S.E.) ([1]; Table 2, 1 mg/kg p.o.)	Relative step-down latency in retention trial (mean ± S.E.) [1, 3]	Relative step-down latency in retention trial (mean ± S.E.) ([1]; Table 2, 25 mg/kg p.o.)	Relative step-down latency in retention trial (mean ± S.E.) ([1]; Table 2, 50 mg/kg p.o.)	Relative step-down latency in retention trial (mean ± S.E.) ([1]; Table 2, 100 mg/kg p.o.)	other results
CCOC(OCC)[C@@H]1CCCN1C(=O)[C@@H]1CCCN1C(=O)OCc1ccccc1 [Example 8, N-benzyloxycarbonyl-L-prolyl-L-prolinal diethyl acetal]	2.2 µM	2.0 ± 0.5	0.9 ± 0.2	1.2 ± 0.3	0.7 ± 0.3	0.6 ± 0.3	–
O=C[C@@H]1CCCN1C(=O)[C@@H]1CCCN1C(=O)OCc1ccccc1 [ZPP, Benzyloxycarbonyl-L-prolyl-L-prolinal] (Cbz-Pro-Pro-aldehyde)	–	2.8 ± 1.3	8.5 ± 1.6	1.4 ± 0.8	0.5 ± 0.1	1.3 ± 0.8	inhibitory activity to proline endopeptidase (proline endopeptidase): inhibitory activity to proline endopeptidase; anti-amnestic action [2]: anti-amnestic action
COc1ccc(C(=O)N2CCCC2=O)cc1 [aniracetam]	–	–	–	–	–	–	Relative step-down latency in retention trial (mean ± S.E.) ([1]; Table 3, 12.5 mg/kg p.o.): 1.1 ± 0.4; Relative step-down latency in retention trial (mean ± S.E.) ([1]; Table 3, 25 mg/kg p.o.): 1.6 ± 0.6; Relative step-down latency in retention trial (mean ± S.E.) ([1]; Table 3, 50 mg/kg p.o., *p < 0.05 (Mann-Whitney)): 2.3 ± 0.6; Relative step-down latency in retention trial (mean ± S.E.) ([1]; Table 3, 100 mg/kg p.o.): 0.7 ± 0.3
